One data set has as its target T1, ERK1 (Homo sapiens, UniProt P27361).
T1 construct: purchased R&D 1879-KS-010
Kind of data set: ERK1 enzyme activity test (ADP-Glo Kinase Assay). The data set is classed as biochemical. The note with it: chemiluminescence. The protocol:
(§1) The purpose of this experiment is to detect the inhibitory ability of the compounds on the ERK1 enzyme activity and evaluate the activity of the compounds in vitro according to IC50. The ADP-Glo™ Kinase Assay Kit was used in this experiment. Under the action of enzyme, the substrate was phosphorylated and ADP was produced at the same time. The ADP-Glo Reagent was added to remove unreacted ATP in the reaction system. The kinase detection reagent was used to detect the ADP produced by the reaction. In the presence of the compound, the inhibition rate of the compound was calculated by measuring the signal value.
Enzyme and substrate preparation: ERK1 (1879-KS-010, R&D) and substrate (AS-61777, anaspec) were prepared to be 0.75 ng/μl and 100 μM respectively in the buffer. The enzyme solution and substrate solution were then prepared into a mixed solution at a volume ratio of 2:1 for later use. ATP was diluted to 300 μM with the buffer. The compounds were dissolved in DMSO (dimethyl sulfoxide, Shanghai Titan Scientific Co., Ltd.) to prepare a stock solution with an initial concentration of 20 mM, and then Bravo was used to prepare solutions of the compounds. Finally, a 3 μL of a mixed solution of enzyme and substrate, and 1 μL of different concentrations of the compound (the initial concentration is 50 μM, 4-fold dilution) were added to each well of the 384-well plate, and the plate was incubated at 30° C. for 10 minutes, and finally 1 μL of 300 μM ATP solution was added to each well, and the plate was incubated at 30° C. for 2 hours. Then 5 μL of ADP-Glo was added, and the plate was incubated at 30° C. for 40 minutes. Then 10 μL of Kinase detection buffer was added, and the plate was incubated at 30° C. for 40 minutes. The 384-well plate was taken out and placed in a microplate reader (BMG labtech, PHERAstar FS), and the chemiluminescence was measured by the microplate reader.
(§2) The data were processed and analyzed with Microsoft Excel, Graphpad Prism 5.

The next data set addresses T2, ERK2 (Homo sapiens, UniProt P28482).
T2 construct: purchased R&D 1230-KS-010
The experiment in a line: ERK2 enzyme activity test (ADP-Glo Kinase Assay). Particulars: chemiluminescence. The data set is classed as biochemical. The protocol:
as §1, with “ERK2” for “ERK1”
Enzyme and substrate preparation: ERK2 (1230-KS-010, R&D) and substrate (Custom peptides, Gill Biochemical) were prepared to be 0.75 ng/μl and 1500 μM in the buffer (40 mM Tris, 20 mM MgCl2, 0.1 mg/mL BSA, 50 μM DTT). The enzyme solution and substrate solution were then prepared into a mixed solution at a volume ratio of 2:1 for later use. ATP was diluted to 500 μM with the buffer. The compounds were dissolved in DMSO (dimethyl sulfoxide, Shanghai Titan Scientific Co., Ltd.) to prepare a stock solution with an initial concentration of 20 mM, and then Bravo was used to prepare solutions of the compounds. Finally, a 3 μL of a mixed solution of enzyme and substrate, and 1 μL of different concentrations of the compound (the initial concentration is 50 μM, 4-fold dilution) were added to each well of the 384-well plate, and the plate was incubated at 30° C. for 10 minutes, and finally 1 μL of 500 μM ATP solution was added to each well, and the plate was incubated at 30° C. for 2 hours. Then 5 μL of ADP-Glo was added, and the plate was incubated at 30° C. for 40 minutes. Then 10 μL of Kinase detection buffer was added, and the plate was incubated at 30° C. for 40 minutes. The 384-well plate was taken out and placed in a microplate reader (BMG labtech, PHERAstar FS), and the chemiluminescence was measured by the microplate reader.
as §2

A further data set deals with Colo205 cells. Kind of data set: In vitro proliferation inhibition test on Colo205 tumor cells (CellTiter-Glo). The data set is classed as cell-based. The note with it: Homo sapiens, COLO 205, 72 h; Colo205 cell proliferation, 3 days of culture, CTG. On the procedure:
The purpose of this experiment is to test the inhibitory activity of the compounds on the proliferation of Colo205 cells (CCL-222, ATCC) in vitro. The cells were treated with different concentrations of compounds in vitro. After 3 days of culture, the cell proliferation was detected using CTG (CellTiter-Glo® Luminescent Cell Viability Assay, Promega, catalog number: G7573) reagent. The in vitro activity of the compounds was evaluated according to the IC50 value.
In the following, taking the in vitro proliferation inhibition test method of Colo205 cells as an example, the method in the present disclosure for testing the in vitro proliferation inhibitory activity of the compounds of the present disclosure is described. This method is also applicable to, but not limited to, the in vitro proliferation inhibitory activity test on other tumor cells.
Colo205 cells were digested, centrifuged and then resuspended. The single cell suspension was mixed well, and the density of viable cells was adjusted to 5.0×10^4 cells/ml with cell culture medium (RPMI1640+2% FBS), and 95 μl/well was added to a 96-well cell culture plate. Only 100 μl medium was added to the peripheral wells of the 96-well plate. The culture plate was incubated in an incubator for 24 hours (37° C., 5% CO2).
The compound was dissolved in DMSO (dimethyl sulfoxide, Shanghai Titan Scientific Co., Ltd.) and prepared into a stock solution with an initial concentration of 20 mM. The initial concentration of the small molecule compound is 2 mM, and then 4-fold diluted into to 9 points, and the tenth point is DMSO. Another 96-well plate was taken, 90 μl of cell culture medium (RPMI1640+2% FBS) was added to each well, then 10 μl of different concentrations of the test sample was added to each well, the mixture was mixed well, and then 5 μl of different concentrations of the test sample was added to the cell culture plate, and each sample has two duplicate holes. The culture plate was incubated in the incubator for 3 days (37° C., 5% CO2). The 96-well cell culture plate was taken out, 50 μl CTG solution was added to each well, and the plate was incubated for 10 minutes at room temperature. In a microplate reader (BMG labtech, PHERAstar FS), chemiluminescence was measured with the microplate reader.
as §2

The nature of data set [1]: Pharmacokinetics assay in mice. The data set is classed as in vivo. Particulars: mouse, po, C57 mice (female), intragastric, 2 mg/kg, plasma; for Vd/F: read-out: Apparent distribution volume Vz/F; for AUC: read-out: Area under curve AUC; for CL/F: read-out: Clearance CLz/F; for half-life: read-out: Half Life T1/2 (converted); for Cmax: read-out: Plasma Concentration Cmax; for MRT: read-out: Residence Time MRT. The protocol: Mice were used as the test animal. The drug concentration in plasma at different time points was determined by LC/MS/MS method after administration of compound 3-P2, compound 4-P2, compound 9-P2, compound 10-P2, compound 12 and compound 15. The pharmacokinetic behavior of the compounds of the present disclosure in mice was studied, and the pharmacokinetic characteristics were evaluated.
54 of C57 mice (female) were equally divided into 6 groups, which were purchased from Shanghai Jiesijie Laboratory Animal Co., Ltd., with the animal production license number: SOCK (Shanghai) 2013-0006.
A certain amount of compound was weighted, followed by the addition of 5% volume of DMSO and 5% Tween 80 to dissolve it, then followed by the addition of 90% normal saline to prepare a colorless and clear solution of 0.1 mg/mL.
After an overnight fast, C57 mice were intragastrically administered the test compound at an administration dose of 2 mg/kg and an administration volume of 0.2 ml/10 g.
The mice were intragastrically administered the test compounds. 0.1mL of blood was taken before the administration and at 0.25, 0.5, 1.0, 2.0, 4.0, 6.0, 8.0, 11.0, 24.0 hours after the administration. The blood was placed in a heparinized test tube, and centrifuged at 3500 rpm for 10 minutes. The plasma was separated and stored at −20° C.
The content of the test compound in the plasma of mice after […] administration of the test compound at different concentrations was determined: 25 μl of mouse plasma at each time point after the administration was taken, followed by the addition of 50 μl of the internal standard camptothecin solution (100 ng/mL) and 200 μl of acetonitrile. The resulting solution was vortex-mixed for 5 minutes, and centrifuged for 10 minutes (4000 rpm). 4μl of the supernatant was taken from the plasma samples for LC/MS/MS analysis.

T2 sequence (P28482 whole entry): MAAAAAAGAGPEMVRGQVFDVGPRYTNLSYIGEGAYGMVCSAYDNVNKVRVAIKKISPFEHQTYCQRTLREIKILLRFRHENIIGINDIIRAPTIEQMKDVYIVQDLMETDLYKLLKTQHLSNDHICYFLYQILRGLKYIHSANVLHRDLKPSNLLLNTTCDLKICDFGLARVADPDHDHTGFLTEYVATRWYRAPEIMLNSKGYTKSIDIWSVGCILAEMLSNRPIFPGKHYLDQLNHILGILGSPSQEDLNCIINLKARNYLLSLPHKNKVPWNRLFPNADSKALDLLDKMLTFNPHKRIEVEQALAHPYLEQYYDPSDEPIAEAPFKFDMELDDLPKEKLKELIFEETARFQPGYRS
T1 sequence (P27361 whole entry): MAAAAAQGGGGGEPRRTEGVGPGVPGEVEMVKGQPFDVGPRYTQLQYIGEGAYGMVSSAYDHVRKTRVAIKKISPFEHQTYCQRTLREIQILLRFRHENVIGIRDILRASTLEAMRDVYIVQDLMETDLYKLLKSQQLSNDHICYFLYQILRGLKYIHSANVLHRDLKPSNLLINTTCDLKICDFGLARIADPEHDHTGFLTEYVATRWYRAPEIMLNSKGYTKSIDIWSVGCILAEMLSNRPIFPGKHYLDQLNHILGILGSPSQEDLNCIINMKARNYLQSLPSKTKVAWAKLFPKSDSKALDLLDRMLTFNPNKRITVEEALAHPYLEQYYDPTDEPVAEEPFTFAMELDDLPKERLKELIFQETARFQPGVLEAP

Compound `COc1cc(F)cc([C@@H](CO)NC(=O)[C@@H](C)N2CCc3sc(-c4nc(NC5CCOCC5)ncc4Cl)cc3C2=O)c1` [Example 9-P2, (R)-2-(2-(5-Chloro-2-((tetrahydro-2H-pyran-4-yl)amino)pyrimidin-4-yl)-4-oxo-6,7-dihydrothieno[3,2-c]pyridin-5(4H)-yl)-N-((S)-1-(3-fluoro-5-methoxyphenyl)-2-hydroxyethyl)prop ionamide] showed an IC50 on ERK1 of 19 nM. This compound registered an IC50 at ERK2 of 3 nM. The same compound yielded an IC50 with Colo205 cells of 18 nM. In addition, in data set [1], the Vd/F was determined as 7.14 L/kg, the AUC was 1820 ng·h/mL, the CL/F turned out to be 18.4 mL/min/kg and the half-life is 269 min. In data set [1], the Cmax is 1480 ng/mL and the MRT came out at 1.85 h.
Consider `COc1cc(F)cc([C@@H](CO)NC(=O)[C@@H](C)N2CCc3sc(-c4nc(Nc5ccnn5C)ncc4C)cc3C2=O)c1` [Example 10-P2, (R)-N-((S)-1-(3-Fluoro-5-methoxyphenyl)-2-hydroxyethyl)-2-(2-(5-methyl-2-((1-methyl-1 H-pyrazol-5-yl)amino)pyrimidin-4-yl)-4-oxo-6,7-dihydrothieno[3,2-c]pyridin-5(4H)-yl)pro pionamide], for which, at ERK1, the IC50 turned out to be 32 nM. At ERK2, this compound showed an IC50 of 5 nM. This compound also gave an IC50 in the data set on Colo205 cells of 50 nM. Besides, in data set [1], the Vd/F worked out at 1.99 L/kg, the AUC was 1830 ng·h/mL, the CL/F was 18.2 mL/min/kg and the half-life is 75.6 min. Also, in data set [1], the Cmax was 1000 ng/mL and the MRT was 1.64 h.
Take `COc1cc(F)cc([C@@H](CO)NC(=O)[C@@H](C)N2CCc3sc(-c4ccnc(NC5CCOCC5)n4)cc3C2=O)c1` [Example 11, (R)-N-((S)-1-(3-Fluoro-5-methoxyphenyl)-2-hydroxyethyl)-2-(4-oxo-2-(2-((tetrahydro-2H-pyran-4-yl)amino)pyrimidin-4-yl)-6,7-dihydrothieno[3,2-c]pyridin-5(4H)-yl)-propionamide]: the IC50 at ERK1 came out at 5 nM; against ERK2, 2 nM; in the data set on Colo205 cells, 16 nM.
For `COc1cc(F)cc([C@@H](CO)NC(=O)[C@@H](C)N2CCc3sc(-c4nc(Nc5ccnn5C)ncc4Cl)cc3C2=O)c1` [Example 14, (R)-2-(2-(5-Chloro-2-((1-methyl-1H-pyrazol-5-yl)amino)pyrimidin-4-yl)-4-oxo-6,7-dihydrothieno[3,2-c]pyridin-5(4H)-yl)-N-((S)-1-(3-fluoro-5-methoxyphenyl)-2-hydroxyethyl)prop ionamide] the same measures were 27 nM, 6 nM and 14 nM.
Regarding `COc1cc(F)cc([C@@H](CO)NC(=O)[C@@H](C)N2CCc3sc(-c4nc(NC5CCOCC5)ncc4C)cc3C2=O)c1` [Example 16, (R)-N-((S)-1-(3-Fluoro-5-methoxyphenyl)-2-hydroxyethyl)-2-(2-(5-methyl-2-((tetrahydro-2 H-pyran-4-yl)amino)pyrimidin-4-yl)-4-oxo-6,7-dihydrothieno[3,2-c]pyridin-5-(4H)-yl)prop ionamide], the IC50 is 3 nM at ERK1 and 1 nM at ERK2.
As to `COc1cc(F)cc([C@@H](CO)NC(=O)[C@@H](C)N2CCc3sc(-c4nc(N[C@@H](C)CO)ncc4C)cc3C2=O)c1` [Example 17, (R)-N-((S)-1-(3-Fluoro-5-methoxyphenyl)-2-hydroxyethyl)-2-(2-(2-(((S)-1-hydroxypropan-2-yl)amino)-5-methylpyrimidin-4-yl)-4-oxo-6,7-dihydrothieno[3,2-c]pyridin-5(4H)-yl)prop ionamide], the 50% inhibitory concentration (IC50) against ERK1 is 12 nM; against ERK2 it was 2 nM; in the data set on Colo205 cells, 17 nM.
